In PubChem BioAssay AID248 (DTP/NCI, 2004):
Inconclusive results and toxic doses are left out. No stated cut-off is given here; in the data, active means T/C of 150% or more; inactive means T/C below 125%.

Tested on: L1210 leukemia ip in BDF1 mice, survival T/C
Assay: NCI In Vivo Anticancer Drug Screen. Data for tumor model L1210 Leukemia (intraperitoneal) in B6D2F1 (BDF1) mice
Conditions: endpoint: mean survival time, higher = longer survival
Outline: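 Value reflects the ratio of survival in compound-treated mice to survival in vehicle-treated controls, with both groups carrying the same transplanted tumor.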

[1] = dose: 100.0 mg/kg/injection, schedule: Q01DX001 (ip), vehicle: saline
[2] = dose: 200.0 mg/kg/injection, schedule: Q01DX001 (ip), vehicle: saline
[3] = dose: 400.0 mg/kg/injection, schedule: Q01DX001 (ip), vehicle: saline
[4] = dose: 100.0 mg/kg/injection, schedule: Q01DX001 (ip), vehicle: carboxymethylcellulose (CMC)
[5] = dose: 200.0 mg/kg/injection, schedule: Q01DX001 (ip), vehicle: carboxymethylcellulose (CMC)
[6] = dose: 400.0 mg/kg/injection, schedule: Q01DX001 (ip), vehicle: carboxymethylcellulose (CMC)
[7] = dose: 100.0 mg/kg/injection, schedule: Q01DX001 (ip), vehicle: other
[8] = dose: 200.0 mg/kg/injection, schedule: Q01DX001 (ip), vehicle: other
[9] = dose: 400.0 mg/kg/injection, schedule: Q01DX001 (ip), vehicle: other
[10] = dose: 100.0 mg/kg/injection, schedule: Q01DX009 (ip), vehicle: saline with Tween-80
[11] = dose: 100.0 mg/kg/injection, schedule: Q04DX003 (ip), vehicle: Klucel (hydroxypropylcellulose) (HPC)
[12] = dose: 200.0 mg/kg/injection, schedule: Q01DX009 (ip), vehicle: saline with Tween-80
[13] = dose: 200.0 mg/kg/injection, schedule: Q04DX003 (ip), vehicle: Klucel (hydroxypropylcellulose) (HPC)
[14] = dose: 400.0 mg/kg/injection, schedule: Q01DX009 (ip), vehicle: saline with Tween-80
[15] = dose: 400.0 mg/kg/injection, schedule: Q04DX003 (ip), vehicle: Klucel (hydroxypropylcellulose) (HPC)
[16] = dose: 75.0 mg/kg/injection, schedule: Q01DX001 (ip), vehicle: saline
[17] = dose: 150.0 mg/kg/injection, schedule: Q01DX001 (ip), vehicle: saline
[18] = dose: 100.0 mg/kg/injection, schedule: Q01DX009 (ip), vehicle: Klucel (hydroxypropylcellulose) (HPC)
[19] = dose: 100.0 mg/kg/injection, schedule: Q01DX009 (ip), vehicle: saline sonified
[20] = dose: 200.0 mg/kg/injection, schedule: Q01DX009 (ip), vehicle: saline sonified
[21] = dose: 200.0 mg/kg/injection, schedule: Q01DX009 (ip), vehicle: Klucel (hydroxypropylcellulose) (HPC)

Measured: T/C

CCCCOC(OCCCC)C(C)(C)CN(C)C
inactive: dose: 12.5 mg/kg/injection, schedule: Q04DX002 (ip), vehicle: saline 117 % of control | dose: 25.0 mg/kg/injection, schedule: Q04DX002 (ip), vehicle: saline 105 % of control | dose: 50.0 mg/kg/injection, schedule: Q04DX002 (ip), vehicle: saline 98 % of control

COC(=O)NCCOS(C)(=O)=O
inactive: [1] 91 % of control | [2] 91 % of control | [3] 88 % of control

COc1cc(-c2ccccc2)c([N+](=O)[O-])cc1[N+](=O)[O-]
inactive: [4] 107 % of control | [5] 110 % of control | [6] 116 % of control

CN=NC(=O)c1cccc2c1-c1ccccc1C2=O
inactive: [7] 87 % of control | [8] 96 % of control | [9] 93 % of control

O=C1C=C(Nc2ccc([N+](=O)[O-])cc2)C(=O)c2ccccc21
inactive: dose: 75.0 mg/kg/injection, schedule: Q01DX001 (ip), vehicle: carboxymethylcellulose (CMC) 87 % of control | dose: 300.0 mg/kg/injection, schedule: Q01DX001 (ip), vehicle: carboxymethylcellulose (CMC) 89 % of control

CCOC(=O)c1cc(CC)sc1N
inactive: [10] 96 % of control | [11] 91 % of control | [12] 86 % of control | [13] 97 % of control | [14] 90 % of control | [15] 96 % of control

CCCCC(=O)NC1=C(Cl)C(=O)c2ccccc2C1=O
inactive: [16] 89 % of control | [17] 90 % of control

OCCCNc1nc2cc(Cl)ccc2c2ccc(Cl)cc12
inactive: [18] 90 % of control | [11] 88 % of control | [13] 97 % of control | [15] 103 % of control

O=C1NC(=O)C(c2ccccc2)O1 (configuration not stated)
inactive: [7] 92 % of control | [8] 103 % of control | [9] 97 % of control

CCOc1ccccc1C(=O)Nc1ccc(Br)cc1
inactive: dose: 50.0 mg/kg/injection, schedule: Q01DX001 (ip), vehicle: carboxymethylcellulose (CMC) 91 % of control | [4] 91 % of control | [5] 96 % of control | [6] 102 % of control

CC(=O)Nc1ccc(O)c2ccccc12
inactive: dose: 100.0 mg/kg/injection, schedule: Q04DX002 (ip), vehicle: Klucel (hydroxypropylcellulose) (HPC) 92 % of control | dose: 200.0 mg/kg/injection, schedule: Q04DX002 (ip), vehicle: Klucel (hydroxypropylcellulose) (HPC) 89 % of control | dose: 400.0 mg/kg/injection, schedule: Q04DX002 (ip), vehicle: Klucel (hydroxypropylcellulose) (HPC) 99 % of control

Cc1ccc(NC(=O)c2ccccc2Cl)cc1C
inactive: [10] 90 % of control | [12] 97 % of control | [14] 104 % of control

COc1cc(-c2nc(/C=C3\C(=O)C=Cc4ccccc43)c(O)o2)cc(OC)c1OC
inactive: dose: 100.0 mg/kg/injection, schedule: Q04DX002 (ip), vehicle: saline with Tween-80 93 % of control | dose: 200.0 mg/kg/injection, schedule: Q04DX002 (ip), vehicle: saline with Tween-80 86 % of control | dose: 400.0 mg/kg/injection, schedule: Q04DX002 (ip), vehicle: saline with Tween-80 93 % of control

[O]=[Sn]([OH])[OH]
inactive: dose: 100.0 mg/kg/injection, schedule: Q01DX009 (ip), vehicle: saline 97 % of control | dose: 200.0 mg/kg/injection, schedule: Q01DX009 (ip), vehicle: saline 94 % of control

CC1C2CC3OC(=O)C1(C)C3C2 (configuration not stated)
inactive: [1] 92 % of control | [2] 98 % of control | [3] 96 % of control

CC(COC(=O)c1ccc(N)cc1)NC1CCCC1 (configuration not stated)
inactive: [16] 97 % of control | [17] 105 % of control

CC(C)(C)C(=O)CSC/C(=N/O)C(C)(C)C
inactive: [11] 112 % of control | [13] 103 % of control | [15] 99 % of control

CC(O)C(O)C(O)C(O)/C=N/O (configuration not stated)
inactive: [11] 100 % of control | [13] 97 % of control | [15] 102 % of control

CN/C([S-])=N/N=C/C(=N/N=C(\[S-])NC)c1ccccc1.[Zn+2]
inactive: dose: 6.25 mg/kg/injection, schedule: Q04DX002 (ip), vehicle: Klucel (hydroxypropylcellulose) (HPC) 101 % of control | dose: 12.5 mg/kg/injection, schedule: Q04DX002 (ip), vehicle: Klucel (hydroxypropylcellulose) (HPC) 97 % of control

Nc1ccc(N)cc1 (tested in a mixture with another compound)
inactive: dose: 50.0 mg/kg/injection, schedule: Q01DX009 (ip), vehicle: DMSO 103 % of control | dose: 100.0 mg/kg/injection, schedule: Q01DX009 (ip), vehicle: DMSO 91 % of control | dose: 100.0 mg/kg/injection, schedule: Q04DX003 (ip), vehicle: DMSO 91 % of control | dose: 200.0 mg/kg/injection, schedule: Q04DX003 (ip), vehicle: DMSO 94 % of control

ClC(Cl)(Cl)C(Cl)(Cl)c1ccc(C(Cl)(Cl)C(Cl)(Cl)Cl)cc1
inactive: [19] 95 % of control | [11] 89 % of control | [20] 94 % of control | [13] 94 % of control | dose: 400.0 mg/kg/injection, schedule: Q01DX009 (ip), vehicle: saline sonified 94 % of control | [15] 96 % of control

COc1ccc(NC(=O)CCCc2ccc(N(CCCl)CCCl)cc2)cc1
inactive: dose: 4.0 mg/kg/injection, schedule: Q12HX018 (ip), vehicle: other 106 % of control | dose: 6.0 mg/kg/injection, schedule: Q12HX018 (ip), vehicle: other 121 % of control | dose: 8.0 mg/kg/injection, schedule: Q12HX018 (ip), vehicle: other 110 % of control

CC(C)=CC=O
inactive: [19] 97 % of control | dose: 100.0 mg/kg/injection, schedule: Q04DX003 (ip), vehicle: saline 96 % of control | [20] 100 % of control | dose: 200.0 mg/kg/injection, schedule: Q04DX003 (ip), vehicle: saline 97 % of control | dose: 400.0 mg/kg/injection, schedule: Q04DX003 (ip), vehicle: saline 103 % of control

O=C(Nc1ccc([N+](=O)[O-])cc1Cl)Oc1ccc2ccccc2c1
inactive: [18] 92 % of control | [11] 100 % of control | [21] 87 % of control | [13] 97 % of control | [15] 100 % of control

CC(C)=C1C2C=CC1C(CO)C2CO (configuration not stated)
inactive: [18] 106 % of control | [11] 105 % of control | [21] 91 % of control | [13] 114 % of control | dose: 400.0 mg/kg/injection, schedule: Q01DX009 (ip), vehicle: Klucel (hydroxypropylcellulose) (HPC) 102 % of control | [15] 102 % of control

CC(C)COC(=O)c1cccc2c1-c1ccccc1C2=O
inactive: [7] 96 % of control | [8] 87 % of control | [9] 98 % of control

CCOc1ccc(C(=O)OCCCl)cc1
inactive: dose: 100.0 mg/kg/injection, schedule: Q04DX003 (ip), vehicle: saline with Tween-80 110 % of control | dose: 200.0 mg/kg/injection, schedule: Q04DX003 (ip), vehicle: saline with Tween-80 109 % of control | dose: 400.0 mg/kg/injection, schedule: Q04DX003 (ip), vehicle: saline with Tween-80 109 % of control

Cc1ccc2scc3c4ccccc4nc-3c2c1
inactive: dose: 25.0 mg/kg/injection, schedule: Q01DX009 (ip), vehicle: saline 95 % of control | dose: 50.0 mg/kg/injection, schedule: Q01DX009 (ip), vehicle: saline 95 % of control

NC(=O)C1=Cc2cc(Cl)cc(Cl)c2OC1
inactive: [10] 93 % of control | [12] 93 % of control | [14] 98 % of control
